Assay results taken from EP1655298A1, “Novel polymorph forms of candesartan cilexetil” (priority 2004, dated 2006).
Read-outs that look alike come from different tables or passages of the source.

Key:
Format in all cases: physicochemical
[1] = Comparable solubility in phosphate buffer / physiologically relevant medium; details: for solubility at 0.5 h: read-out: C30 min; for solubility at 1 h: read-out: C60 min
Description: In order to prepare a pharmaceutical composition physical properties were measured.
(§1) Physiologically relevant medium is a phosphate buffer at pH=6.76 + Sodiumtauroholat (2,5 mM) + Lecitin (0,5 mM). Surface area of Form 1 was 2.15 - 2,68 m^2/g whereas the surface area of Form 5 was 7,66 m^2/g (BET - isotherm), the hygroscopity as established by DVS - first cycle at 90 % humidity was 0,23% for Form I and 0,44% for Form 5.

Hygroscopicity by DVS = details: DVS - first cycle at 90 % humidity
Description: as §1

[2] = Surface area (BET isotherm)
Description: as §1

| SMILES | solubility at 0.5 h ([1]; aqueous buffer, Phosphate buffer pH=6.76, 30 min) | solubility at 1 h ([1]; aqueous buffer, Phosphate buffer pH=6.76, 60 min) | hygroscopity (Hygroscopicity by DVS; listed as Form I) | Surface area [2] | C30 min ([1]; Phosphate buffer pH=6.76, 30 min) | C60 min ([1]; Phosphate buffer pH=6.76, 60 min) | solubility at 0.5 h ([1]; phosphate buffer + taurocholate + lecithin, Physiologically relevant medium: phosphate buffer pH=6.76 + Sodiumtauroholat (2,5 mM) + Lecitin (0,5 mM), 30 min) | solubility at 1 h ([1]; phosphate buffer + taurocholate + lecithin, Physiologically relevant medium: phosphate buffer pH=6.76 + Sodiumtauroholat (2,5 mM) + Lecitin (0,5 mM), 60 min) | hygroscopity (Hygroscopicity by DVS) |
| --- | --- | --- | --- | --- | --- | --- | --- | --- | --- |
| CCOc1nc2cccc(C(=O)OC(C)OC(=O)OC3CCCCC3)c2n1Cc1ccc(-c2ccccc2-c2nnn[nH]2)cc1 (stereo not drawn) [Form 1, candesartan cilexetil] | < 0.2 µg/mL | < 0.2 µg/mL | 0,23% | – | – | – | – | – | – |
| CCOc1nc2cccc(C(=O)OC(C)OC(=O)OC3CCCCC3)c2n1Cc1ccc(-c2ccccc2-c2nnn[nH]2)cc1 (stereo not drawn) [Form 5, candesartan cilexetil] | – | – | – | 7,66 m^2/g | <0.2 µg/mL | <0.2 µg/mL | 37.1 µg/mL | 68.5 µg/mL | 0,44% |
